In patent US20170252392A1, “COMPOSITION FOR IMPROVEMENT, TREATMENT OR PREVENTION OF CONSTIPATION COMPRISING CASSIA SEED LACTIC ACID BACTERIA FERMENTED PRODUCT AS EFFECTIVE INGREDIENT, AND METHOD FOR PREPARING SAME” (HAENAM NATURAL FARMING ASSOCIATION COOPERATION, priority 2014, published 2017):

How the values were obtained:
[1] = test system: Sprague-Dawley (SD) rats with loperamide-induced constipation; assay: Colonic transits of carmine dye (Experimental Example 3); assay type: in vivo, rat; conditions: 20 min after oral carmine dye
Protocol: At day 6, 3 mL of carmine dye at a concentration of 1.5% (w/v) in physiological saline was administered orally to the experimental animals. 20 min after the oral administration, the experimental animals were sacrificed. Thereafter, in each experimental animal, both ends of the site of the colon from the appendix to the rectum were ligated. The colon site was excised and washed with PBS. The colonic transits of the carmine dye were measured from FIG. 6.

[2] = test system: Sprague-Dawley (SD) rats with loperamide-induced constipation; assay: Prevention of loperamide-induced constipation: number and weight of feces (Experimental Example 2); assay type: in vivo, rat
Protocol: Four-week-old male Sprague-Dawley (SD) rats were purchased from Damul Science (Daejeon, Korea) and bred at a temperature of 20±2° C. and a humidity of 55±5% on a 12 h light-dark cycle. The experimental animals were acclimated for 1 week after purchase and were divided into the experimental groups (5 animals per group) shown in Table 3.
All experimental groups other than the normal control (NOR) and the negative control (LOP) were administered orally the respective drugs (positive controls) or the respective fermented products of Preparative Example 4 for 5 days before loperamide administration.
The negative control (LOP), the positive controls (CON1, CON2), and all experimental groups other than the normal control (NOR) were administered subcutaneously loperamide for 5 days to induce constipation. The experimental animals were sacrificed on day 6 after initiation of the loperamide administration.

CN(C)C(=O)C(CCN1CCC(O)(c2ccc(Cl)cc2)CC1)(c1ccccc1)c1ccccc1 [loperamide]
Colonic transit of the carmine dye ([1]; negative control (LOP): loperamide 4 mg/kg s.c. 5 days, normal control 13.4±0.94 cm): 6.6±0.75 cm | Weight of feces ([2]; negative control (LOP): loperamide 4 mg/kg subcutaneously for 5 days, normal control 4.8±0.89): 2.6±0.32 | Number of feces ([2]; negative control (LOP): loperamide 4 mg/kg subcutaneously for 5 days, normal control 47.2±5.8): 23.1±3.6

sennoside
Colonic transit of the carmine dye ([1]; sennoside 50 mg/kg oral before loperamide (CON1)): significantly increased compared to that in the negative control (LOP) | Number of feces ([2]; sennoside 50 mg/kg oral before loperamide 4 mg/kg s.c. 5 days (CON1)): more effective in increasing the number of feces than Dulcolax-S | Weight of feces ([2]; sennoside 50 mg/kg oral before loperamide (CON1), compared with CON2): no significant difference in the weight of feces
